We go through 2 compounds from patent US4339442A, “Gynosaponins, their use and a process for preparing the same” (priority 1980, dated 1982).

What all share (format): cell-based, male wister rats
Test [1] has as its system fat cells. The test is described as follows: Decomposition of the fat in the fat cell by ACTH. The following applies: ACTH 1 μg/ml + saponin 20 μg/ml, 37° C., two hours; for inhibition at 20 µg/mL: Rattus norvegicus, 2 h, read-out: Rate of inhibition.
Test [2] deals with fat cells. Kind of test: Synthesis of fat from glucose in fat cells. The following applies: 20 μg/ml; for Power for synthesis of neutral fat from glucose: 37° C., half an hour; for activation at 20 µg/mL: Rattus norvegicus, 0.5 h, none = 100, read-out: Rate of promotion.
The test system of test [3] is fat cells. The test is described as follows: Decomposition by adrenalin of the fat in the fat cells. The following applies: adrenalin 1 μg/ml + saponin 20 μg/ml, 37° C., two hours; for inhibition at 20 µg/mL: Rattus norvegicus, 2 h, read-out: Rate of inhibition.

Consider `CC(C)=CCC[C@](C)(O[C@@H]1O[C@H](CO[C@@H]2OC[C@@H](O)[C@H](O)[C@H]2O)[C@@H](O)[C@H](O)[C@H]1O)[C@H]1CC[C@]2(C)[C@@H]1[C@H](O)C[C@@H]1[C@@]3(C)CC[C@H](O[C@@H]4O[C@H](CO)[C@@H](O)[C@H](O)[C@H]4O[C@@H]4OC[C@@H](O)[C@H](O)[C@H]4O)C(C)(C)[C@@H]3CC[C@]12C` [gynosaponin Q, 20S-Protopanaxadiol-3-O-[β-D-xylopyranosyl (1→2)-β-D-glucopyranoside]-20-O-[β-D-xylopyranosyl (1→6)-β-D-glucopyranoside]], for which, in the test on fat cells [1], the “Free fatty acid formed by decomposition of fat” value (from here on “Free fatty acid formed”) stood at 5.8 μ Eq/g and the inhibition at 20 µg/mL was found to be 31%. Besides, in the test with fat cells [2], the “Power for synthesis of neutral fat from glucose” value is recorded as 11,620 cpm/g and the activation at 20 µg/mL was 54%. In the test on fat cells [3], the inhibition at 20 µg/mL was determined as 4% and the “Free fatty acid formed” value is given as 13.5 μ Eq/g.
In the case of `CC(C)=CCC[C@](C)(O[C@@H]1O[C@H](CO[C@@H]2O[C@H](CO)[C@@H](O)[C@H](O)[C@H]2O)[C@@H](O)[C@H](O)[C@H]1O)[C@H]1CC[C@]2(C)[C@@H]1[C@H](O)C[C@@H]1[C@@]3(C)CC[C@H](O[C@@H]4O[C@H](CO)[C@@H](O)[C@H](O)[C@H]4O)C(C)(C)[C@@H]3CC[C@]12C` [gynosaponin S, 20S-Protopanaxadiol-3-O-β-D-glucopyranoside-20-O-[β-D-glucopyranosyl (1→6)-β-D-glucopyranoside]], in the test with fat cells [1], the “Free fatty acid formed” value is listed as 5.4 μ Eq/g and the inhibition at 20 µg/mL worked out at 36%. In addition, in the test with fat cells [2], the “Power for synthesis of neutral fat from glucose” value is 10,100 cpm/g and the activation at 20 µg/mL worked out at 47%. Further, in the test with fat cells [3], the inhibition at 20 µg/mL worked out at 4% and the “Free fatty acid formed” value was 13.5 μ Eq/g.

As usually defined, the inhibition is the percentage by which the read-out fell short of the control.
